# Assays:
# Apelin receptor APJ = experiment: cAMP luciferase assay in APJ-expressing NIH3T3 cells (screening system for apelin-like agents); assay type: cell-based; conditions: FIG. 3
# Description: A cAMP luciferase reporter vector was transfected into a stable cell line, which was obtained by highly expressing Apelin receptor APJ in NIH3T3 cells, and then subjecting to selection with hygromycin (provided by Professor Nobuyuki Takakura of the Research Institute for Microbial Diseases of Osaka University), and these were used in the cAMP luciferase assay described below. Culturing was carried out in DMEM medium containing 10% FBS containing 200 µg/ml of hygromycin (Invitrogen). On the day before the assay, 2.0 x 10^5 cells were seeded into each well of a 96-well plate followed by culturing in DMEM medium containing 10% FBS and 200 µg/ml of hygromycin.
# After culturing overnight, the medium was removed by aspiration and replaced with 100 µl of additive-free DMEM per well. Three hours later, Glosensor™ cAMP Reagent (Promega) was added at 4 µl per well followed by equilibrating for 2 hours at room temperature under light blocking. Subsequently, apelin 13 (Peptide Institute) was diluted with additive-free DMEM medium to a concentration of 0.4 µg/ml and this was added at 50 µl per well (final concentration: 0.1 µg/ml) followed by incubating for 5 minutes at room temperature. […] Subsequently, luminescence was measured with the GloMax™ 96 Microplate Luminometer (Promega). […]
# menopausal mice = conditions: apelin highly expressed in epidermis (K14 promoter transgene, OVXTG) vs OVXWT; nifedipine 50 µg/kg i.p.; 10, 30 and 45 minutes; FIG. 1
# Description: Ovariectomy was performed on C57/BL6 mice highly expressing apelin in the epidermis under the control of a K14 promoter (herein after referred to as apelin-highly expressed mice, apelin TG or TG) and the corresponding wild-type mice (C57/BL6) (n=5, 8 to 10 week-old) to obtain menopausal mice highly expressing apelin and menopausal wild type mice. Furthermore, wild type mice that underwent sham surgery were used as a control. Four weeks later, nifedipine (50 µg/kg) was administered intraperitoneally as a vasodilator, and changes in tail temperature were analyzed using thermography (Thermo Tracer TH9011MR, NEC/Avio Infrared Technologies Co., Ltd.) at 10, 30 and 45 minutes after administration.
substance,measurement,setting,value
apelin,cAMP concentration,"Apelin receptor APJ; apelin 13 final concentration 0.1 µg/ml, forskolin final 10 µM, versus forskolin-only control",decreased
same,decreases in cAMP concentration in the presence of apelin neutralizing antibody,"Apelin receptor APJ; apelin final 0.5 µg/ml together with neutralizing antibody 4G5 at 1.5, 5, 15 and 50 µg/ml",suppressed
same,transient rises in body temperature (tail temperature) caused by hot flashes,menopausal mice,able to suppress or improve transient rises in body temperature caused by hot flashes in a short period of time

# From patent publication EP2692352A1, “HOT FLASH SUPPRESSANT” (Shiseido Company, Ltd., priority 2011, dated 2014)
